From patent US9593305B2, “Differentiation of pluripotent stem cells” (Janssen Biotech, Inc., priority 2008, dated 2017)

Test system: H1 human embryonic stem cells
Assay: Analog screening with GDF-8 and growth factor/agonist pool (Example 8, Tables 7 and 8)
Assay type: cell-based
Details: for outcome in analog screening of hits from primary screening: 2.5 μM with GDF-8 and growth factor/agonist pool
Summary of the method: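 H1 hESC clusters, washed free of growth factors, fed on alternate days over 4 days with DMEM:F12, 0.5% FCS, 2.5 μM compound, 25 ng/ml GDF-8 plus a 50 ng/ml growth-factor pool. Fixed cells immunostained for SOX17 and imaged; total SOX17 intensity normalised to positive control.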

[1] = Plate 2, compound + EGF, FGF, PDGF-A, VEGF, PDGF-D, muscimol, GDF8
[2] = Plate 2, compound + EGF, FGF, PDGF-A, VEGF, PDGF-D, muscimol, GDF8, positive control Activin A/Wnt3a
[3] = Table 8: hits with greater than 25% activity of the positive control, with GDF-8 and growth factors/agonists

Compound	Cell Number, Average Total Cell Number [1]	Sox17 Expression, Average Total Intensity [1]	Cell Number, % of positive control [2]	Sox17 Expression, % of positive control [2]	Cell Number, % of positive control [3]	Sox17 Expression, % of positive control [3]	Sox17 Expression, Average Total Intensity [3]	outcome in analog screening of hits from primary screening
CCN1CC(=O)NCCCc2cc(ccc2F)-c2ncnc(n2)Nc2cc(Cl)cc(c2)C1 [Compound 25, 10-Chloro-14-ethyl-22-fluoro-3,5,7,14,17,27-hexaazatetracyclo[19.3.1.1˜2,6˜0.1˜8,12˜]heptacosa-1(25), 2(27), 3,5,8(26), 9,11,21,23-nonaen-16-one]	6571	7.60E+07	41.6 % of positive control	26.6 % of positive control	41.6 % of positive control	26.6 % of positive control	7.60E+07	–
O=C1CCN2CCN(CC2)Cc2cc(Cl)cc(c2)Nc2ncnc(n2)-c2cncc(c2)CCCN1 [Compound 34, 5-Chloro-1,8,10,12,16,22,26,32-octaazapentacyclo[24.2.2.1˜3.7˜0.1˜9,13˜0.1˜14.18˜]tritriaconta-3(33), 4,6,9(32), 10,12,14(31), 15,17-nonaen-23-one]	8907	9.99E+07	56.3 % of positive control	35.0 % of positive control	56.3 % of positive control	35.0 % of positive control	9.99E+07	repeated as hits
CCN1CC(=O)NCCCc2cncc(c2)-c2ncnc(n2)Nc2cc(Cl)cc(c2)C1 [Compound 35, 10-Chloro-14-ethyl-3,5,7,14,17,23,27-heptaazatetracyclo[19.3.1.1˜2,6˜0.1˜8,12]Theptacosa-1(25), 2(27), 3,5,8(26), 9,11,21,23-nonaen-16-one]	10461	1.59E+08	66.2 % of positive control	55.7 % of positive control	66.2 % of positive control	55.7 % of positive control	1.59E+08	repeated as hits
C=CCN1CC(=O)NCCCc2cncc(c2)-c2ncnc(n2)Nc2cccc(c2)C1 [Compound 40, 14-Prop-2-en-1-yl-3,5,7,14,17,23,27-heptaazatetracyclo[19.3.1.1˜2.6˜0.1˜8,12˜]heptacosa-1(25), 2(27), 3,5,8(26), 9,11,21,23-nonaen-16-one]	4049	8.23E+07	25.6 % of positive control	28.8 % of positive control	25.6 % of positive control	28.8 % of positive control	8.23E+07	–
